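In this assay, cells in 96-well plates receive the compound at five concentrations for 48 hours. Endpoints are linearly interpolated between the surrounding concentrations. Abbreviation: GI50, concentration required for 50% inhibition of growth. At the TGI there is no net growth.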
Assays:
Assay in all cases: inhibition of tumour cell growth, NCI panel, 48 h
[1] = system: M14 melanoma
[2] = system: HS 578T breast
[3] = system: SK-MEL-5 melanoma
[4] = system: HL-60(TB) leukemia
[5] = system: SF-268 CNS
[6] = system: UACC-62 melanoma
[7] = system: BT-549 breast
[8] = system: SF-539 CNS
[9] = system: OVCAR-5 ovarian
[10] = system: SF-295 CNS
[11] = system: RXF 393 renal
[12] = system: U251 CNS
[13] = system: SNB-75 CNS
[14] = system: SNB-19 CNS
[15] = system: HCC-2998 colon
[16] = system: EKVX NSCLC
[17] = system: SK-OV-3 ovarian
[18] = system: SK-MEL-28 melanoma
[19] = system: NCI-H23 lung
[20] = system: HCT-15 colon
[21] = system: NCI/ADR-RES ovarian
[22] = system: HOP-62 NSCLC
[23] = system: CCRF-CEM leukemia
[24] = system: T-47D breast
[25] = system: SR leukemia
[26] = system: OVCAR-4 ovarian
[27] = system: MOLT-4 leukemia
[28] = system: RPMI-8226 leukemia

Structure (SMILES): Nc1ccccc1NC(=O)c1ccc(NC(=O)C/C=C/c2cccnc2)cc1
- GI50 [1]: 1370 nM
- TGI [1]: > 50000 nM
- GI50 [2]: 1660 nM
- TGI [2]: > 50000 nM
- GI50 [3]: 957 nM
- TGI [3]: 1910 nM
- GI50 [4]: 448 nM
- TGI [4]: > 50000 nM
- GI50 [5]: 1930 nM
- TGI [5]: > 50000 nM
- GI50 [6]: 1060 nM
- TGI [6]: 4980 nM
- GI50 [7]: 1170 nM
- TGI [7]: 4720 nM
- GI50 [8]: 181 nM
- TGI [8]: 26400 nM
- GI50 [9]: 803 nM
- TGI [9]: > 50000 nM
- GI50 [10]: 1670 nM
- TGI [10]: 11300 nM
- GI50 [11]: 784 nM
- TGI [11]: 3860 nM
- GI50 [12]: 1040 nM
- TGI [12]: > 50000 nM
- GI50 [13]: 1260 nM
- TGI [13]: > 50000 nM
- GI50 [14]: 2250 nM
- TGI [14]: > 50000 nM
- GI50 [15]: 953 nM
- TGI [15]: 4540 nM
- GI50 [16]: 2250 nM
- TGI [16]: > 50000 nM
- GI50 [17]: 2400 nM
- TGI [17]: > 50000 nM
- GI50 [18]: 962 nM
- TGI [18]: 2650 nM
- GI50 [19]: 1550 nM
- TGI [19]: 26600 nM
- GI50 [20]: 1320 nM
- TGI [20]: > 50000 nM
- GI50 [21]: 3230 nM
- TGI [21]: > 50000 nM
- GI50 [22]: 2000 nM
- TGI [22]: > 50000 nM
- GI50 [23]: 225 nM
- TGI [23]: > 50000 nM
- GI50 [24]: 623 nM
- TGI [24]: > 50000 nM
- GI50 [25]: 382 nM
- TGI [25]: > 50000 nM
- GI50 [26]: 3680 nM
- TGI [26]: > 50000 nM
- GI50 [27]: 1050 nM
- TGI [27]: > 50000 nM
- GI50 [28]: 605 nM
- TGI [28]: 5570 nM
